Numbers after ± are expanded uncertainties.
Test: excess molar enthalpy (molar enthalpy of mixing); xn = mol fraction of the nth substance listed
Conditions: 101.3 kPa, Liquid, Flow calorimetry

CCOC(=O)CC(=O)OCC [diethyl 1,3-propanedioate] + CCCO
excess molar enthalpy [kcal/mol]
Conditions	288.2 K	298.2 K	313.2 K	328.2 K
x1 = 0.0499	0.116 ± 0.00311	0.128 ± 0.00335	0.138 ± 0.00382	0.143 ± 0.00382
x1 = 0.1004	0.207 ± 0.00478	0.225 ± 0.00502	0.25 ± 0.00574	0.266 ± 0.00598
x1 = 0.1588	–	0.314 ± 0.00693	0.345 ± 0.00765	0.371 ± 0.00813
x1 = 0.209	–	0.376 ± 0.00813	0.415 ± 0.00908	0.447 ± 0.00956
x1 = 0.2513	0.381 ± 0.00837	0.418 ± 0.00908	0.458 ± 0.0098	0.491 ± 0.0105
x1 = 0.3	0.415 ± 0.00884	0.456 ± 0.0098	0.5 ± 0.0108	0.536 ± 0.0115
x1 = 0.3491	0.443 ± 0.00956	0.485 ± 0.0103	0.533 ± 0.0115	0.571 ± 0.0122
x1 = 0.3982	0.462 ± 0.0098	0.504 ± 0.0108	0.554 ± 0.012	0.593 ± 0.0127
x1 = 0.451	0.472 ± 0.01	0.515 ± 0.011	0.565 ± 0.012	0.603 ± 0.0129
x1 = 0.499	0.478 ± 0.0103	0.52 ± 0.011	0.567 ± 0.0122	0.602 ± 0.0129
x1 = 0.5503	0.474 ± 0.01	0.512 ± 0.011	0.559 ± 0.012	0.592 ± 0.0127
x1 = 0.6002	0.462 ± 0.0098	0.497 ± 0.0105	0.539 ± 0.0115	0.567 ± 0.0122
x1 = 0.6479	0.445 ± 0.00956	0.476 ± 0.0103	0.511 ± 0.011	0.539 ± 0.0115
x1 = 0.6986	0.419 ± 0.00908	0.447 ± 0.00956	0.47 ± 0.01	0.493 ± 0.0105
x1 = 0.7525	0.376 ± 0.00813	0.399 ± 0.0086	0.418 ± 0.00908	0.434 ± 0.00932
x1 = 0.797	0.334 ± 0.00717	0.352 ± 0.00765	0.361 ± 0.00789	0.375 ± 0.00813
x1 = 0.8506	0.269 ± 0.00598	0.28 ± 0.00621	0.284 ± 0.00621	0.294 ± 0.00645
x1 = 0.9003	0.196 ± 0.00454	0.197 ± 0.00454	0.205 ± 0.00478	0.204 ± 0.00478
x1 = 0.9527	0.105 ± 0.00287	0.104 ± 0.00287	0.103 ± 0.00287	0.0999 ± 0.00287

CCOC(=O)CC(=O)OCC [diethyl 1,3-propanedioate] + CC(C)O
excess molar enthalpy [kcal/mol]
Conditions	288.2 K	298.2 K	313.2 K	328.2 K
x1 = 0.0511	0.145 ± 0.00382	0.151 ± 0.00406	0.158 ± 0.0043	0.163 ± 0.0043
x1 = 0.1001	0.244 ± 0.0055	0.263 ± 0.00598	0.277 ± 0.00645	0.292 ± 0.00669
x1 = 0.1511	0.322 ± 0.00717	0.35 ± 0.00765	0.378 ± 0.00837	0.39 ± 0.0086
x1 = 0.2012	0.387 ± 0.00837	0.419 ± 0.00908	0.449 ± 0.00956	0.473 ± 0.0103
x1 = 0.2494	0.431 ± 0.00932	0.467 ± 0.01	0.51 ± 0.011	0.531 ± 0.0115
x1 = 0.3015	0.47 ± 0.01	0.51 ± 0.011	0.557 ± 0.012	0.576 ± 0.0124
x1 = 0.3507	0.5 ± 0.0108	0.542 ± 0.0115	0.586 ± 0.0124	0.611 ± 0.0131
x1 = 0.3998	0.516 ± 0.011	0.56 ± 0.012	0.606 ± 0.0129	0.63 ± 0.0134
x1 = 0.4484	0.523 ± 0.0112	0.569 ± 0.0122	0.616 ± 0.0131	0.639 ± 0.0136
x1 = 0.5003	0.524 ± 0.0112	0.566 ± 0.0122	0.611 ± 0.0131	0.637 ± 0.0136
x1 = 0.5513	0.519 ± 0.0112	0.56 ± 0.012	0.6 ± 0.0129	0.62 ± 0.0131
x1 = 0.6007	0.501 ± 0.0108	0.539 ± 0.0115	0.582 ± 0.0124	0.597 ± 0.0127
x1 = 0.6478	0.483 ± 0.0103	0.52 ± 0.0112	0.555 ± 0.012	0.561 ± 0.012
x1 = 0.6977	0.449 ± 0.00956	0.482 ± 0.0103	0.511 ± 0.011	0.516 ± 0.011
x1 = 0.7508	0.398 ± 0.0086	0.431 ± 0.00932	0.451 ± 0.0098	0.454 ± 0.0098
x1 = 0.8007	0.345 ± 0.00741	0.379 ± 0.00813	0.391 ± 0.00837	0.387 ± 0.00837
x1 = 0.8468	0.286 ± 0.00645	0.309 ± 0.00669	0.32 ± 0.00717	0.302 ± 0.00669
x1 = 0.9023	0.185 ± 0.0043	0.219 ± 0.00502	0.213 ± 0.00502	0.202 ± 0.00478
x1 = 0.9537	0.0963 ± 0.00263	0.111 ± 0.00335	0.104 ± 0.00311	0.0935 ± 0.00287

Reference: the NIST ThermoML archive (doi:10.1021/je9003806)
